# Laboratory results from US5985909A, “Cyclopropylindoles and their seco precursors, and their use as prodrugs” (Cancer Research Campaign Technology Limited, priority 1995, dated 1999).
# pIC50: −log10 of the molar value.
# Columns and labels:
# [1] = background statement, test system not given; cited from earlier work
# AA8 cells = assay: Growth inhibition (cytotoxicity) in AA8 cells, 18 h drug exposure, methylene blue staining; format: cell-based, Chinese hamster; settings: Cricetulus griseus, CHO-AA8, 18 h exposure then 78 h growth, 50% inhibition of growth relative to controls
# Method: (§1) The compounds of Examples 1 and 3 show potent cytotoxicity to mammalian tumour cells, and are thus of interest as anticancer drugs. […] For these evaluations, AA8 and UV4 cells were maintained in exponential phase growth (doubling times 14 and 15 h respectively) using Alpha MEM containing fetal calf serum (10% v/v) without antibiotics, and were subcultured twice weekly by trypsinization. Bulk cultures were prepared for experiments by seeding cells in spinner flasks at 10^4 cells/mL in the above medium with addition of penicillin (100 IU/mL) and streptomycin (100 μg/mL). Cultures were initiated in 96-well microtiter trays to give 200 (AA8) or 300 (UV4) cells in 0.05 mL per well. After growth in a CO2 incubator for 24 h, drugs were added in culture medium, using serial two-fold dilutions to provide duplicate cultures at five different concentrations for each of eight drugs (plus eight controls) per tray. After 18 h drugs were removed by washing cultures three times with fresh medium, and the trays were incubated for a further 78 h. Cell density was then determined by staining with methylene blue as described [Finlay, G. J.; Baguley, B. C; Wilson, W. R. Anal. Biochem., 1984, 139, 272-277]. The IC50 was calculated as the drug concentration providing 50% inhibition of growth relative to the controls.
# UV4 cells [2] = assay: Growth inhibition (cytotoxicity) in UV4 cells, 18 h drug exposure, methylene blue staining; format: cell-based, Chinese hamster; settings: Cricetulus griseus, 18 h exposure then 78 h growth (Example 9), read-out: IC50 against UV4 cells
# Method: as §1, with “controls. […]” for “controls.”
# UV4 cells [3] = assay: Activation of prodrug by E. coli nitroreductase: IC50 in UV4 cells without and with purified enzyme and NADH; format: cell-based, Chinese hamster; settings: for pIC50: 18 hours; for fold activation by the enzyme: ratio of IC50 without to IC50 with E. coli nitroreductase, 1080 min
# Method: as §1
# The compound was incubated with UV4 cells for 18 hours in 96-well plates under aerobic conditions. The UV4 cell line is a mutant Chinese hamster ovary fibroblast lines derived from the wild-type AA8. It is a UV complementation group 1 mutant, with a defect in the incision step of excision repair [Thompson, L. H. et al Proc. Natl. Acad. Sci (USA), 1980, 78, 3734; Thompson, L. H.; Carrono, A. V. In Cellular responses to DNA Damage, UCLA Symposium on Molecular and Cellular Biology, New Series, Vol. 11 (Freidberg, E. C.; Bridges, B. R.; Eds), Alan R. Liss: New York, 1983: p 125], and is highly sensitive to agents which form bulky DNA monoadducts or crosslinks [Hoy, C.A . et al Cancer Res., 1985, 45, 1737-1747].
# The experiment was repeated but in addition purified E. coli nitroreductase enzyme (1 μg/mL) and NADH (1 mM, as cofactor) was added during the entire time of the incubation. […] This represents a 26-fold activation by the enzyme.
# human tumours = settings: background statement; cited from earlier work
Compound,pIC50 (AA8 cells),pIC50 (UV4 cells [2]),fold activation by the enzyme (UV4 cells [3]) [fold],anticancer activity against a range of human tumours (human tumours),also measured
COc1c(O)c2c(c3cc(C(=O)N4CCc5c4c(O)c(OC)c4[nH]c(C(=O)N6CC7CC78C6=CC(=O)c6[nH]cc(C)c68)cc54)[nH]c13)CCN2C(N)=O (stereo not shown) [CC-1065],–,–,–,–,IC50 [1]: low pM range
"COc1cc2cc(C(=O)N3CC(CCl)c4ccc(N)cc43)[nH]c2c(OC)c1OC (stereo not shown) [Example 1, 6-Amino-3-(chloromethyl)-1-[(5',6',7'-trimethoxyindol-2'-yl)carbonyl]indoline]",6.49,7.23,–,–,–
"COc1cc2cc(C(=O)N3CC(CCl)c4ccc(NC(=O)OCc5ccc([N+](=O)[O-])cc5)cc43)[nH]c2c(OC)c1OC (stereo not shown) [Example 3, 3-(Chloromethyl)-6-[(4""-nitrobenzyloxycarbonyl)amino]-1-[(5',6',7'-trimethoxyindol-2'-yl)carbonyl]indoline]",4.64,4.71,26,–,"pIC50 (UV4 cells [3]; Cricetulus griseus, aerobic conditions, no enzyme (Example 10), read-out: IC50 in UV4 cells in the absence of E. coli nitroreductase): 4.92; pIC50 (UV4 cells [3]; Cricetulus griseus, aerobic, purified E. coli nitroreductase 1 μg/mL and NADH 1 mM during the entire incubation, read-out: IC50 in UV4 cells in the presence of E. coli nitroreductase): 6.34"
COC(=O)c1c(C)[nH]c2c(OC(=O)N3CCN(C)CC3)cc3c(c12)[C@H](CBr)CN3C(=O)c1cc2cc(OC)c(OC)c(OC)c2[nH]1 [KW-2189],–,–,–,show anticancer activity against a range of human tumours,–
CCN(CC)c1ccc2cc(C(=O)Nc3ccc4[nH]c(C(=O)N5C[C@@H](CCl)c6c5cc(OC(=O)Nc5ccccc5)c5[nH]cc(C)c65)cc4c3)oc2c1 [carzelesin],–,–,–,show anticancer activity against a range of human tumours,–
"COc1cc2cc(C(=O)N3CC(CCl)c4ccc([N+](=O)[O-])cc43)[nH]c2c(OC)c1OC (stereo not shown) [example 1(h), 3-(Chloromethyl)-6-nitro-1-[(5',6',7'-trimethoxyindol-2'-yl)carbonyl]indoline]",–,–,400,–,"pIC50 (UV4 cells [3]; aerobic conditions, no enzyme (Example 10), read-out: IC50 in UV4 cells in the absence of E. coli nitroreductase): 5.63; pIC50 (UV4 cells [3]; aerobic, purified E. coli nitroreductase 1 μg/mL and NADH 1 mM during the entire incubation, read-out: IC50 in UV4 cells in the presence of E. coli nitroreductase): 8.22"
